Among the data in BindingDB's records for doi:10.1111/j.1747-0285.2009.00905.x (Ariad Pharmaceuticals, 2010) are IC50 values, retold here.

The target in test [1] is Proto-oncogene tyrosine-protein kinase Src (Homo sapiens, UniProt P12931). In words: In vitro kinase assay using Abl, Abl T315I or Src kinase.
For test [2], the target named is Tyrosine-protein kinase ABL1 [T315I] (Homo sapiens, UniProt P00519, T315I). Briefly: In Vitro Kinase Assay.
Test [3] has as its target Tyrosine-protein kinase ABL1 (Homo sapiens, UniProt P00519). Briefly: In Vitro Kinase Assay.

Proto-oncogene tyrosine-protein kinase Src, sequence (P12931 whole entry, looked up): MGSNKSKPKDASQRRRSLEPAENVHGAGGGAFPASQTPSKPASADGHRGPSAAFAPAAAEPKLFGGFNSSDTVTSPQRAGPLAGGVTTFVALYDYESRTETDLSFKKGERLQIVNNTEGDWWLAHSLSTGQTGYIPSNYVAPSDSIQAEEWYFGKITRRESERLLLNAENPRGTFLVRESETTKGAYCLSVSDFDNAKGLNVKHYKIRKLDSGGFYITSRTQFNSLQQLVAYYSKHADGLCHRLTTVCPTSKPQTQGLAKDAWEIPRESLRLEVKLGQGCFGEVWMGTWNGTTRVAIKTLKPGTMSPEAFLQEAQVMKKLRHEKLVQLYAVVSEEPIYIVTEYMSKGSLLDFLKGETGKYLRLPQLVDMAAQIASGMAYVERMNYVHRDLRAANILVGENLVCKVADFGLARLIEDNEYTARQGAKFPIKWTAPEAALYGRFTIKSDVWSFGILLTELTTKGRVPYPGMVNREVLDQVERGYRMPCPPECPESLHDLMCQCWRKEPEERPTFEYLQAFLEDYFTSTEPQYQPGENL

The term IC50 denotes the concentration that gives 50% inhibition. A higher IC50 goes with a need for much substance. Consider `Cc1ccc2[nH]ncc2c1/C=C/n1cnc2c(Nc3ccc(P(C)(C)=O)cc3)ncnc21`, for which the figures for the IC50 in test [1], in test [2] and in test [3] were less than 0.5 nM, greater than 10000 nM and less than 0.5 nM, respectively.
For the molecule `Cc1cccc(C)c1/C=C/n1cnc2c(Nc3ccc(P(C)(C)=O)cc3)ncnc21` [AP24149], the values for the IC50 in test [1] and in test [2] were 9.1 nM and 8900 nM, respectively.
